Measured values from ChEMBL document CHEMBL5620419, “Discovery of new Lenalidomide derivatives as potent and selective GSPT1 degraders” (Eur J Med Chem, 2023).

Target: Protein cereblon/Eukaryotic peptide chain release factor GTP-binding subunit ERF3A (Homo sapiens, UniProt P15170+Q96SW2)
Assay: PROTAC activity at CRBN/GSPT1 in human U-937 cells assessed as degradation of GSPT1 measured after 6 hrs by Western blot analysis
Format: cell-based

Sequence of Protein cereblon/Eukaryotic peptide chain release factor GTP-binding subunit ERF3A (Q96SW2 whole entry): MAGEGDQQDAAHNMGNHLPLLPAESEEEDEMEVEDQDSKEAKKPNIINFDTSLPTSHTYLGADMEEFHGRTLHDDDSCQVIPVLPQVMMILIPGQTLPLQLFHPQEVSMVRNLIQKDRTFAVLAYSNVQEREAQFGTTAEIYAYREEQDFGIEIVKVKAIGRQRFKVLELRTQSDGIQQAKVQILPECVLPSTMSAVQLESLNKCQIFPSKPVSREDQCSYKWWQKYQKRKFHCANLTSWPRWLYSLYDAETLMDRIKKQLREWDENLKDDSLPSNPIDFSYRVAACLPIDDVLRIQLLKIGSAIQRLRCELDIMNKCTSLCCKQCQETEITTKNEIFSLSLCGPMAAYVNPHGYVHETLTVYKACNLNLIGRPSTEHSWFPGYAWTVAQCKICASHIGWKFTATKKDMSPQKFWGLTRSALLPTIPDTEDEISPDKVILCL
Sequence of Protein cereblon/Eukaryotic peptide chain release factor GTP-binding subunit ERF3A (P15170 whole entry): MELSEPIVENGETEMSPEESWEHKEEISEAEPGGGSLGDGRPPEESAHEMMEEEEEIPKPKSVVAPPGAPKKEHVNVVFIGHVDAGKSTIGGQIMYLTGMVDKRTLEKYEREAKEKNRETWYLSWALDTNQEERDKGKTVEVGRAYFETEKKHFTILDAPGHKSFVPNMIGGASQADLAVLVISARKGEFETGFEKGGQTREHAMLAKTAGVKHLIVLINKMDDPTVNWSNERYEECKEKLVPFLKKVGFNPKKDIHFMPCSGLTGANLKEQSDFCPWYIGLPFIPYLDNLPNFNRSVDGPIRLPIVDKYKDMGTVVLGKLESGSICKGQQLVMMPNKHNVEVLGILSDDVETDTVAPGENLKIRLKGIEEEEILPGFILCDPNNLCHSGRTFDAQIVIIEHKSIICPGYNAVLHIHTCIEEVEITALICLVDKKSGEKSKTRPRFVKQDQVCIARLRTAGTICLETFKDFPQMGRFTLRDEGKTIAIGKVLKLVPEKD

Row | EC50 [nM] | Compound
1 | > 10000 | Cc1ccc(NC(=O)COc2ccc3c(c2)C(=O)N(C2CCC(=O)NC2=O)C3)cc1Cl (stereo not drawn)
2 | 447 | Cc1ccc(NC(=O)CCc2ccc3c(c2)C(=O)N(C2CCC(=O)NC2=O)C3=O)cc1Cl (stereo not drawn)
3 | > 10000 | Cc1ccc(NC(=O)CC(C)c2ccc3c(c2)C(=O)N(C2CCC(=O)NC2=O)C3)cc1Cl (stereo not drawn)
4 | 251 | Cc1c(Cl)cc(NC(=O)CCc2ccc3c(c2)C(=O)N(C2CCC(=O)NC2=O)C3)cc1CN1CCN(C2CCOCC2)CC1 (stereo not drawn)
5 | > 10000 | Cc1cc(NC(=O)C(C)Cc2ccc3c(c2)CN(C2CCC(=O)NC2=O)C3=O)ccc1Cl (stereo not drawn)
6 | 176 | Cc1c(Cl)cc(NC(=O)CCc2ccc3c(c2)C(=O)N(C2CCC(=O)NC2=O)C3)cc1CN1CCC(N2CCOCC2)CC1 (stereo not drawn)
7 | > 10000 | Cc1ccc(NC(=O)/C=C/c2ccc3c(c2)C(=O)N(C2CCC(=O)NC2=O)C3)cc1Cl (stereo not drawn)
8 | 208 | Cc1c(Cl)cc(NC(=O)CCc2ccc3c(c2)C(=O)N(C2CCC(=O)NC2=O)C3)cc1CN1CC(N2CCOCC2)C1 (stereo not drawn)
